# In patent US20070049564A1 (Wyeth, priority 2005, published 2007):
# Where two headings read alike, the source gives them in different places.
# How the values were obtained:
# E. faecium GC 4556 = assay: MIC, broth microdilution; settings: Enterococcus faecium
# S. typhimurium GC 2172 = assay: MIC, broth microdilution; settings: Salmonella enterica, TYPHIMURIUM
# S. aureus GC 6467 = assay: MIC, broth microdilution; settings: Staphylococcus aureus
# E. coli GC 1073 = assay: MIC, broth microdilution; settings: Escherichia coli
# E. coli GC 4560 = assay: MIC, broth microdilution; settings: Escherichia coli
# E. faecium GC 2243 = assay: MIC, broth microdilution; settings: Enterococcus faecium
# S. aureus GC 4536 = assay: MIC, broth microdilution; settings: Staphylococcus aureus
# E. coli GC 2235 = assay: MIC, broth microdilution; settings: Escherichia coli
# c. albicans GC 3066 = assay: MIC, broth microdilution
# Staph. = assay: Range of MIC for Staph. strains, including MRSA; settings: Staphylococcus aureus
# E. faecalis GC 2242 = assay: MIC, broth microdilution; settings: Enterococcus faecalis
# E. coli GC 2233 = assay: MIC, broth microdilution; settings: Escherichia coli
# Experimental: Antimicrobial susceptibility testing. The in vitro activities of the antibiotics are determined by the broth microdilution method as recommended by the National Committee for Clinical Laboratory Standards (NCCLS) (1). Mueller-Hinton II broth (MHBII)(BBL Cockeysville, Md.) is the medium employed in the testing procedures. Microtiter plates containing serial dilutions of each antimicrobial agent are inoculated with each organism to yield the appropriate density (10^5 CFU/ml) in a 100 μl final volume. The plates are incubated for 18-22 hours at 35° C. in ambient air.
# Representative compounds were first incubated in mouse serum for an hour prior to the in vitro testing against a panel of selected gram-positive and gram-negative bacteria strains. All compounds were also pre-incubated in water for an hour prior to testing as control.
# E. coli GC 6465 = assay: MIC, broth microdilution; settings: Escherichia coli
# E. coli GC 2270 = assay: MIC, broth microdilution; settings: Escherichia coli
# E. coli GC 2231 = assay: MIC, broth microdilution; settings: Escherichia coli
# S. aureus GC 1079 = assay: MIC, broth microdilution; settings: Staphylococcus aureus
# S. aureus GC 6469 = assay: MIC, broth microdilution; settings: Staphylococcus aureus
# S. aureus GC 2216 = assay: MIC, broth microdilution; settings: Staphylococcus aureus
# S. aureus GC 6466 = assay: MIC, broth microdilution; settings: Staphylococcus aureus
# E. coli = assay: Range of MIC for E. coli strains; settings: Escherichia coli
structure (smiles),measurement,setting,value
"CC(C)CC(=O)OCOC(=O)N(CC(=O)Nc1cc(N(C)C)c2c(c1O)C(=O)C1=C(O)[C@]3(O)C(=O)C(C(N)=O)=C(O)[C@@H](N(C)C)[C@@H]3C[C@@H]1C2)C(C)(C)C [Example 53, ({[(2-{[(5aR,6aS,7S,10aS)-9-(aminocarbonyl)-4,7-bis(dimethylamino)-1,8,10a,11-tetrahydroxy-10,12-dioxo-5,5a,6,6a,7,10,10a,12-octahydrotetracen-2-yl]amino}-2-oxoethyl)(tert-butyl)amino]carbonyl}oxy)methyl 3-methylbutanoate]",MIC,"E. faecium GC 4556; GC4556, read-out: MINIMAL INHIBITORY CONCENTRATION MIC, Human Serum",2 µg/mL
same,MIC,"E. faecium GC 4556; GC4556, read-out: MINIMAL INHIBITORY CONCENTRATION MIC, Mouse Serum",0.5 µg/mL
same,MIC,"E. faecium GC 4556; GC4556, read-out: MINIMAL INHIBITORY CONCENTRATION MIC, Water",2 µg/mL
same,MIC,"S. typhimurium GC 2172; read-out: MINIMAL INHIBITORY CONCENTRATION MIC, Human Serum",64 µg/mL
same,MIC,"S. typhimurium GC 2172; read-out: MINIMAL INHIBITORY CONCENTRATION MIC, Mouse Serum",4 µg/mL
same,MIC,"S. typhimurium GC 2172; read-out: MINIMAL INHIBITORY CONCENTRATION MIC, Water",> 64 µg/mL
same,MIC,"S. aureus GC 6467; GC6467, read-out: MINIMAL INHIBITORY CONCENTRATION MIC, Human Serum",1 µg/mL
same,MIC,"S. aureus GC 6467; GC6467, read-out: MINIMAL INHIBITORY CONCENTRATION MIC, Mouse Serum",1 µg/mL
same,MIC,"S. aureus GC 6467; GC6467, read-out: MINIMAL INHIBITORY CONCENTRATION MIC, Water",2 µg/mL
same,MIC,"E. coli GC 1073; GC1073, read-out: MINIMAL INHIBITORY CONCENTRATION MIC, Human Serum",16 µg/mL
same,MIC,"E. coli GC 1073; GC1073, read-out: MINIMAL INHIBITORY CONCENTRATION MIC, Mouse Serum",1 µg/mL
same,MIC,"E. coli GC 1073; GC1073, read-out: MINIMAL INHIBITORY CONCENTRATION MIC, Water",32 µg/mL
same,MIC,"E. coli GC 4560; GC4560, read-out: MINIMAL INHIBITORY CONCENTRATION MIC, Human Serum",2 µg/mL
same,MIC,"E. coli GC 4560; GC4560, read-out: MINIMAL INHIBITORY CONCENTRATION MIC, Mouse Serum",0.5 µg/mL
same,MIC,"E. coli GC 4560; GC4560, read-out: MINIMAL INHIBITORY CONCENTRATION MIC, Water",2 µg/mL
same,MIC,"E. faecium GC 2243; GC2243, read-out: MINIMAL INHIBITORY CONCENTRATION MIC, Human Serum",0.25 µg/mL
same,MIC,"E. faecium GC 2243; GC2243, read-out: MINIMAL INHIBITORY CONCENTRATION MIC, Mouse Serum",0.25 µg/mL
same,MIC,"E. faecium GC 2243; GC2243, read-out: MINIMAL INHIBITORY CONCENTRATION MIC, Water",0.5 µg/mL
same,MIC,"S. aureus GC 4536; GC4536, read-out: MINIMAL INHIBITORY CONCENTRATION MIC, Human Serum",0.5 µg/mL
same,MIC,"S. aureus GC 4536; GC4536, read-out: MINIMAL INHIBITORY CONCENTRATION MIC, Mouse Serum",0.25 µg/mL
same,MIC,"S. aureus GC 4536; GC4536, read-out: MINIMAL INHIBITORY CONCENTRATION MIC, Water",1 µg/mL
same,MIC,"E. coli GC 2235; GC2235, read-out: MINIMAL INHIBITORY CONCENTRATION MIC, Human Serum",8 µg/mL
same,MIC,"E. coli GC 2235; GC2235, read-out: MINIMAL INHIBITORY CONCENTRATION MIC, Mouse Serum",0.5 µg/mL
same,MIC,"E. coli GC 2235; GC2235, read-out: MINIMAL INHIBITORY CONCENTRATION MIC, Water",32 µg/mL
same,MIC,"c. albicans GC 3066; Candida albicans, GC3066, read-out: MINIMAL INHIBITORY CONCENTRATION MIC",> 64 µg/mL
same,MINIMAL INHIBITORY CONCENTRATION MIC,c. albicans GC 3066; Human Serum,>64 UG/ML
same,MINIMAL INHIBITORY CONCENTRATION MIC,c. albicans GC 3066; Mouse Serum,>64 UG/ML
same,MIC,"Staph.; MRSA, read-out: Range of MIC, Staph (Mouse Serum)",0.25 to 1 µg/mL
same,MIC,"Staph.; MRSA, read-out: Range of MIC, Staph (Water)",0.5 to 2 µg/mL
same,MIC,"Staph.; read-out: Minimum inhibitory concentration (MIC), Staph (Human Serum)",0.5 to 2 µg/mL
same,MIC,"Staph.; read-out: Minimum inhibitory concentration (MIC), Staph (Water)",0.5 to 2 µg/mL
same,MIC,"E. faecalis GC 2242; GC2242, read-out: MINIMAL INHIBITORY CONCENTRATION MIC, Human Serum",2 µg/mL
same,MIC,"E. faecalis GC 2242; GC2242, read-out: MINIMAL INHIBITORY CONCENTRATION MIC, Mouse Serum",0.5 µg/mL
same,MIC,"E. faecalis GC 2242; GC2242, read-out: MINIMAL INHIBITORY CONCENTRATION MIC, Water",2 µg/mL
same,MIC,"E. coli GC 2233; GC2233, read-out: MINIMAL INHIBITORY CONCENTRATION MIC, Human Serum",16 µg/mL
same,MIC,"E. coli GC 2233; GC2233, read-out: MINIMAL INHIBITORY CONCENTRATION MIC, Mouse Serum",1 µg/mL
same,MIC,"E. coli GC 2233; GC2233, read-out: MINIMAL INHIBITORY CONCENTRATION MIC, Water",32 µg/mL
same,MIC,"E. coli GC 6465; GC6465, read-out: MINIMAL INHIBITORY CONCENTRATION MIC, Human Serum",32 µg/mL
same,MIC,"E. coli GC 6465; GC6465, read-out: MINIMAL INHIBITORY CONCENTRATION MIC, Mouse Serum",4 µg/mL
same,MIC,"E. coli GC 6465; GC6465, read-out: MINIMAL INHIBITORY CONCENTRATION MIC, Water",> 64 µg/mL
same,MIC,"E. coli GC 2270; GC2270, read-out: MINIMAL INHIBITORY CONCENTRATION MIC, Human Serum",8 µg/mL
same,MIC,"E. coli GC 2270; GC2270, read-out: MINIMAL INHIBITORY CONCENTRATION MIC, Mouse Serum",1 µg/mL
same,MIC,"E. coli GC 2270; GC2270, read-out: MINIMAL INHIBITORY CONCENTRATION MIC, Water",32 µg/mL
same,MIC,"E. coli GC 2231; GC2231, read-out: MINIMAL INHIBITORY CONCENTRATION MIC, Human Serum",16 µg/mL
same,MIC,"E. coli GC 2231; GC2231, read-out: MINIMAL INHIBITORY CONCENTRATION MIC, Mouse Serum",1 µg/mL
same,MIC,"E. coli GC 2231; GC2231, read-out: MINIMAL INHIBITORY CONCENTRATION MIC, Water",64 µg/mL
same,MIC,"S. aureus GC 1079; GC1079, read-out: MINIMAL INHIBITORY CONCENTRATION MIC, Human Serum",0.5 µg/mL
same,MIC,"S. aureus GC 1079; GC1079, read-out: MINIMAL INHIBITORY CONCENTRATION MIC, Mouse Serum",0.5 µg/mL
same,MIC,"S. aureus GC 1079; GC1079, read-out: MINIMAL INHIBITORY CONCENTRATION MIC, Water",1 µg/mL
same,MIC,"S. aureus GC 6469; GC6469, read-out: MINIMAL INHIBITORY CONCENTRATION MIC, Human Serum",1 µg/mL
same,MIC,"S. aureus GC 6469; GC6469, read-out: MINIMAL INHIBITORY CONCENTRATION MIC, Mouse Serum",1 µg/mL
same,MIC,"S. aureus GC 6469; GC6469, read-out: MINIMAL INHIBITORY CONCENTRATION MIC, Water",2 µg/mL
same,MIC,"S. aureus GC 2216; GC2216, read-out: MINIMAL INHIBITORY CONCENTRATION MIC, Human Serum",0.5 µg/mL
same,MIC,"S. aureus GC 2216; GC2216, read-out: MINIMAL INHIBITORY CONCENTRATION MIC, Mouse Serum",0.5 µg/mL
same,MIC,"S. aureus GC 2216; GC2216, read-out: MINIMAL INHIBITORY CONCENTRATION MIC, Water",1 µg/mL
same,MIC,"S. aureus GC 6466; GC6466, read-out: MINIMAL INHIBITORY CONCENTRATION MIC, Human Serum",0.5 µg/mL
same,MIC,"S. aureus GC 6466; GC6466, read-out: MINIMAL INHIBITORY CONCENTRATION MIC, Mouse Serum",0.5 µg/mL
same,MIC,"S. aureus GC 6466; GC6466, read-out: MINIMAL INHIBITORY CONCENTRATION MIC, Water",0.5 µg/mL
same,MIC,"E. coli; 20 h, read-out: Range of MIC, E. coli (Mouse Serum)",0.25 to 1 µg/mL
same,MIC,"E. coli; read-out: Minimum inhibitory concentration (MIC), E. coli (Human Serum)",8 to 16 µg/mL
same,MIC,"E. coli; read-out: Minimum inhibitory concentration (MIC), E. coli (water)",16 to 64 µg/mL
same,MIC,"E. coli; read-out: Range of MIC, E. coli (Water)",16 to 64 µg/mL
